According to PubChem BioAssay (NCI):
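GI50 = concentration required for 50% inhibition of growth. TGI is the concentration that stops growth completely.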

Columns and labels:
Assay in all cases: DTP human tumour cell line panel, 384-well format
786-0 renal = test system: 786-0 renal
A498 renal = test system: A498 renal
A549 NSCLC = test system: A549 NSCLC
ACHN renal = test system: ACHN renal
BT-549 breast = test system: BT-549 breast
CAKI-1 renal = test system: CAKI-1 renal
CCRF-CEM leukemia = test system: CCRF-CEM leukemia
COLO 205 colon = test system: COLO 205 colon
DU-145 prostate = test system: DU-145 prostate
EKVX NSCLC = test system: EKVX NSCLC
HCC-2998 colon = test system: HCC-2998 colon
HCT-116 colon = test system: HCT-116 colon
HCT-15 colon = test system: HCT-15 colon
HL-60(TB) leukemia = test system: HL-60(TB) leukemia
HOP-62 NSCLC = test system: HOP-62 NSCLC
HOP-92 NSCLC = test system: HOP-92 NSCLC
HS 578T breast = test system: HS 578T breast
HT29 colon = test system: HT29 colon
IGROV1 ovarian = test system: IGROV1 ovarian
K-562 leukemia = test system: K-562 leukemia
KM12 colon = test system: KM12 colon
LOX IMVI melanoma = test system: LOX IMVI melanoma
M14 melanoma = test system: M14 melanoma
MALME-3M melanoma = test system: MALME-3M melanoma
MCF7 breast = test system: MCF7 breast
MDA-MB-231 breast = test system: MDA-MB-231 breast
MDA-MB-435 melanoma = test system: MDA-MB-435 melanoma
MDA-MB-468 breast = test system: MDA-MB-468 breast
MOLT-4 leukemia = test system: MOLT-4 leukemia
NCI-H226 lung = test system: NCI-H226 lung
NCI-H23 lung = test system: NCI-H23 lung
NCI-H322M lung = test system: NCI-H322M lung
NCI-H460 NSCLC = test system: NCI-H460 NSCLC
NCI-H522 lung = test system: NCI-H522 lung
NCI/ADR-RES ovarian = test system: NCI/ADR-RES ovarian
OVCAR-3 ovarian = test system: OVCAR-3 ovarian
OVCAR-4 ovarian = test system: OVCAR-4 ovarian
OVCAR-5 ovarian = test system: OVCAR-5 ovarian
OVCAR-8 ovarian = test system: OVCAR-8 ovarian
PC-3 prostate = test system: PC-3 prostate
RPMI-8226 leukemia = test system: RPMI-8226 leukemia
RXF 393 renal = test system: RXF 393 renal
SF-268 CNS = test system: SF-268 CNS
SF-295 CNS = test system: SF-295 CNS
SF-539 CNS = test system: SF-539 CNS
SK-MEL-28 melanoma = test system: SK-MEL-28 melanoma
SK-MEL-5 melanoma = test system: SK-MEL-5 melanoma
SK-OV-3 ovarian = test system: SK-OV-3 ovarian
SN12C renal = test system: SN12C renal
SNB-19 CNS = test system: SNB-19 CNS
SNB-75 CNS = test system: SNB-75 CNS
SW-620 colon = test system: SW-620 colon
T-47D breast = test system: T-47D breast
TK-10 renal = test system: TK-10 renal
U251 glioblastoma = test system: U251 glioblastoma
UACC-257 melanoma = test system: UACC-257 melanoma
UACC-62 melanoma = test system: UACC-62 melanoma
UO-31 renal = test system: UO-31 renal

SMILES: CC1=C2C[C@H]3[C@@H](CC[C@@H]4CC(NS(C)(=O)=O)CC[C@@]43C)[C@@H]2CC[C@@]2(C1)O[C@@H]1C[C@H](C)CN[C@H]1[C@H]2C (stereo partly specified)
- GI50 ([…]-0 renal): 2.21 µM
- TGI (786-0 renal): 5.06 µM
- GI50 (A498 renal): 2.99 µM
- TGI (A498 renal): 7.76 µM
- GI50 (A549 NSCLC): 4 µM
- TGI (A549 NSCLC): 14.2 µM
- GI50 (ACHN renal): 2.62 µM
- TGI (ACHN renal): 6.64 µM
- GI50 (BT-549 breast): 4.17 µM
- TGI (BT-549 breast): 12.8 µM
- GI50 (CAKI-1 renal): 4.29 µM
- TGI (CAKI-1 renal): 15.8 µM
- GI50 (CCRF-CEM leukemia): 1.95 µM
- TGI (CCRF-CEM leukemia): 3.74 µM
- GI50 (COLO 205 colon): 2.46 µM
- TGI (COLO 205 colon): 5.34 µM
- GI50 (DU-145 prostate): 5.47 µM
- TGI (DU-145 prostate): 16.6 µM
- GI50 (EKVX NSCLC): 3.44 µM
- TGI (EKVX NSCLC): 8.77 µM
- GI50 (HCC-2998 colon): 3.47 µM
- TGI (HCC-2998 colon): 9.91 µM
- GI50 (HCT-116 colon): 3.83 µM
- TGI (HCT-116 colon): 12.7 µM
- GI50 (HCT-15 colon): 3.89 µM
- TGI (HCT-15 colon): 13.6 µM
- GI50 (HL-60(TB) leukemia): 3.3 µM
- TGI (HL-60(TB) leukemia): 12.2 µM
- GI50 (HOP-62 NSCLC): 4.47 µM
- TGI (HOP-62 NSCLC): 15.1 µM
- GI50 (HOP-92 NSCLC): 3.4 µM
- TGI (HOP-92 NSCLC): 12.7 µM
- GI50 (HS 578T breast): 10.8 µM
- TGI (HS 578T breast): 22.7 µM
- GI50 (HT29 colon): 1.9 µM
- TGI (HT29 colon): 3.55 µM
- GI50 (IGROV1 ovarian): 1.88 µM
- TGI (IGROV1 ovarian): 3.47 µM
- GI50 (K-562 leukemia): 1.83 µM
- TGI (K-562 leukemia): 3.23 µM
- GI50 (KM12 colon): 8.44 µM
- TGI (KM12 colon): 20.6 µM
- GI50 (LOX IMVI melanoma): 1.88 µM
- TGI (LOX IMVI melanoma): 3.6 µM
- GI50 (M14 melanoma): 2.49 µM
- TGI (M14 melanoma): 5.93 µM
- GI50 (MALME-3M melanoma): 1.88 µM
- TGI (MALME-3M melanoma): 3.32 µM
- GI50 (MCF7 breast): 3.24 µM
- TGI (MCF7 breast): 11.9 µM
- GI50 (MDA-MB-231 breast): 11.6 µM
- TGI (MDA-MB-231 breast): 23.8 µM
- GI50 (MDA-MB-435 melanoma): 12.4 µM
- TGI (MDA-MB-435 melanoma): 25 µM
- GI50 (MDA-MB-468 breast): 2.08 µM
- TGI (MDA-MB-468 breast): 3.96 µM
- GI50 (MOLT-4 leukemia): 1.83 µM
- TGI (MOLT-4 leukemia): 3.55 µM
- GI50 (NCI-H226 lung): 5.5 µM
- TGI (NCI-H226 lung): 17.6 µM
- GI50 (NCI-H23 lung): 14.9 µM
- TGI (NCI-H23 lung): 28.2 µM
- GI50 (NCI-H322M lung): 10.9 µM
- TGI (NCI-H322M lung): 22.9 µM
- GI50 (NCI-H460 NSCLC): 1.94 µM
- TGI (NCI-H460 NSCLC): 3.61 µM
- GI50 (NCI-H522 lung): 3.46 µM
- TGI (NCI-H522 lung): 8.3 µM
- GI50 (NCI/ADR-RES ovarian): 13.7 µM
- TGI (NCI/ADR-RES ovarian): 26.7 µM
- GI50 (OVCAR-3 ovarian): 3.97 µM
- TGI (OVCAR-3 ovarian): 11.5 µM
- GI50 (OVCAR-4 ovarian): 5.29 µM
- TGI (OVCAR-4 ovarian): 14.8 µM
- GI50 (OVCAR-5 ovarian): 13.8 µM
- TGI (OVCAR-5 ovarian): 26.8 µM
- GI50 (OVCAR-8 ovarian): 13.4 µM
- TGI (OVCAR-8 ovarian): 26.3 µM
- GI50 (PC-3 prostate): 3.6 µM
- TGI (PC-3 prostate): 11.5 µM
- GI50 (RPMI-8226 leukemia): 3.72 µM
- TGI (RPMI-8226 leukemia): 11.2 µM
- GI50 (RXF 393 renal): 2.98 µM
- TGI (RXF 393 renal): 9.2 µM
- GI50 (SF-268 CNS): 3.22 µM
- TGI (SF-268 CNS): 9.73 µM
- GI50 (SF-295 CNS): 13.3 µM
- TGI (SF-295 CNS): 26.1 µM
- GI50 (SF-539 CNS): 5.02 µM
- TGI (SF-539 CNS): 15.9 µM
- GI50 (SK-MEL-28 melanoma): 3.01 µM
- TGI (SK-MEL-28 melanoma): 6.71 µM
- GI50 (SK-MEL-5 melanoma): 1.72 µM
- TGI (SK-MEL-5 melanoma): 3.12 µM
- GI50 (SK-OV-3 ovarian): 3.8 µM
- TGI (SK-OV-3 ovarian): 10.2 µM
- GI50 (SN12C renal): 3.89 µM
- TGI (SN12C renal): 13 µM
- GI50 (SNB-19 CNS): 5.22 µM
- TGI (SNB-19 CNS): 16.4 µM
- GI50 (SNB-75 CNS): 3.82 µM
- TGI (SNB-75 CNS): 15 µM
- GI50 (SW-620 colon): 13.8 µM
- TGI (SW-620 colon): 26.8 µM
- GI50 (T-47D breast): 2.12 µM
- TGI (T-47D breast): 4.28 µM
- GI50 (TK-10 renal): 2.75 µM
- TGI (TK-10 renal): 7.38 µM
- GI50 (U251 glioblastoma): 4.31 µM
- TGI (U251 glioblastoma): 14.2 µM
- GI50 (UACC-257 melanoma): 2.19 µM
- TGI (UACC-257 melanoma): 3.64 µM
- GI50 (UACC-62 melanoma): 10.7 µM
- TGI (UACC-62 melanoma): 22.6 µM
- GI50 (UO-31 renal): 3.9 µM
- TGI (UO-31 renal): 13.7 µM
